Key:
Type in all cases: physicochemical
[1] = Storage stability of temozolomide in type 3 packaging, purity by HPLC (Example 3); details: for Initial purity, % by HPLC: before starting the storage period; for Initial purity, % by HPLC / Purity, % by HPLC after 1 month of storage / Purity, % by HPLC after 2 months of storage / Purity, % by HPLC after 6 month of storage: % area; for Purity, % by HPLC after 1 month of storage / Purity, % by HPLC after 2 months of storage / Purity, % by HPLC after 6 month of storage: warehouse conditions; for Purity, % by HPLC after 6 month of storage: 6 months
Protocol: Analytical measurements of the temozolomide samples were performed using an HPLC system equipped with Phenomenex Synergi™ Fusion-RP C18 column, 250×4.6 mm, and a UV detector operated on 250 nm. Analyses were performed using the following mobile phase, at flow rate of 1.0 ml/minute: Mobile phase: 90% Solution A: 0.02M potassium dihydrogen phosphate buffer (pH 3); 10% Solution B: acetonitrile.
Three different samples of temozolomide were stored at warehouse conditions in a type 3 packaging. A small quantity was taken from each sample after 1, 2 and 6 months and the purity was checked by HPLC and compared to the original HPLC chromatogram of each sample (before starting the storage period). The purity of each sample was obtained as % area by the HPLC chromatogram and compared to the initial purity value (before starting the storage period).

[2] = Colour stability of temozolomide in different drug packaging at warehouse conditions (Example 2)
Text: Exemplary packaging, which can be used in the storage system of the present invention, can include, e.g., packaging type 1, packaging type 2 and/or packaging type 3. When packaging type 1 is used, the temozolomide is preferably contained (e.g., packed or packaged) in a sealed transparent polymeric bag (e.g., a sealed polyethylene bag). When packaging type 2 is used, the temozolomide is preferably contained (e.g., packed or packaged) in a sealed transparent polymeric bag (e.g., a sealed polyethylene bag), which is inserted into another opaque (e.g., black) polymeric bag (e.g., a black polyethylene bag), which is then sealed effectively to prevent penetration of humidity, oxygen and/or light. When packaging type 3 is used, the temozolomide is preferably contained (e.g., packaged or packed) in a sealed transparent polymeric bag (e.g., a sealed polyethylene bag), which is inserted in an opaque (e.g., black) polymeric bag (e.g., a black polyethylene bag), which is then sealed and, in turn, put inside a sealed laminated aluminum bag, which is then sealed. For packaging type 2 and packaging type 3, a desiccant can be interposed (e.g., dispersed) between the two plastic layers (e.g., between the transparent and opaque polymeric bags).
Exemplary packaging for the storage system of the present invention can include packaging type 1, wherein temozolomide is packed and sealed in a transparent polyethylene bag. Exemplary packaging for the storage system of the present invention also can include packaging type 2, wherein temozolomide is packed and sealed in a transparent polyethylene bag, which is inserted into an opaque (e.g., black) polyethylene bag, which is then sealed, wherein the packaging is sealed effectively to prevent penetration of humidity and/or oxygen. Exemplary packaging for the storage system of the present invention also can include packaging type 3, wherein temozolomide is packed and sealed in a transparent polyethylene bag, which is packed in an opaque (e.g., black) polyethylene bag, which is then sealed and, in turn, packed and sealed in a laminated aluminum bag, which is then sealed. In packaging type 2 and in packaging type 3, a desiccant optionally can be interposed (e.g., dispersed) between the two polymeric bags/layers. In accordance with the present invention, each packaging, e.g., packaging type 1, type 2, and/or type 3 as described herein, can be packed under an inert atmosphere (e.g., under a nitrogen atmosphere) or in ambient air. In a preferred embodiment, the storage system of the present invention includes a type 3 packaging with a silica gel desiccant, wherein the packaging is optionally packed and sealed under a nitrogen atmosphere. An exemplary type 3 packaging is described in Example 2, which describes a type 3 packaging containing a silica gel desiccant, optionally under nitrogen atmosphere, which is effective in maintaining the temozolomide white color for long storage periods. […]

[3] = Effect of relative humidity on temozolomide stability, visual colour test in open glass vessel (Example 4)
Protocol: Three samples of temozolomide were stored in an open glass vessel at different relative humidity (RH) conditions for storage periods of up to 3 weeks, after which time the color changes were evaluated.

SMILES | Initial purity, % by HPLC [1] [%] | Purity, % by HPLC after 1 month of storage ([1]; type 3 packaging) [%] | Purity, % by HPLC after 2 months of storage ([1]; type 3 packaging) [%] | Purity, % by HPLC after 6 month of storage ([1]; type 3 packaging) [%] | Rate of decomposition on storage ([1]; type 3 packaging, wet sample (water about 1.8%) vs dry samples 3417 and 3034 (water less than 0.1%, KF)) | Color ([2]; Type 1 at ambient air, storage period 6 weeks, warehouse conditions, initially white) | Color ([2]; Type 3 - the inner bag of entry 2 was left out (sealed) for two more weeks, 6 weeks) | Color ([2]; Type 3 at ambient air containing a desiccant in the inner packaging, 4 weeks, warehouse conditions) | Color ([2]; Type 3 at ambient air containing a desiccant in the inner packaging, 10 weeks, warehouse conditions) | Color ([2]; Type 3 under nitrogen containing a desiccant in the inner packaging, 6 weeks, warehouse conditions) | Color ([2]; Type 3 under nitrogen without desiccant in the inner packaging, 8 weeks, warehouse conditions) | Result of visual test ([3]; RH 20%, 3 weeks) | Result of visual test ([3]; RH 80%, 4 days)
Cn1nnc2c(C(N)=O)ncn2c1=O [Sample 519, temozolomide] | 97.9 | 97.3 | 97.3 | 96.2 | appeared to decompose at a faster rate than the dry samples | – | – | – | – | – | – | – | –
Cn1nnc2c(C(N)=O)ncn2c1=O [Sample 3034, temozolomide] | 99.8 | 99.7 | 99.8 | 99.8 | – | – | – | – | – | – | – | – | –
Cn1nnc2c(C(N)=O)ncn2c1=O [Sample 3417, temozolomide] | 99.7 | 99.8 | 99.9 | 99.7 | – | – | – | – | – | – | – | – | –
Cn1nnc2c(C(N)=O)ncn2c1=O [temozolomide, 8-carbamoyl-3-methyl-imidazo[5,1-d]-1,2,3,5-tetrazin-4(3H)-one] | – | – | – | – | – | pinkish | pinkish | white | white | white | pinkish | White | pink color
